Reference: patent US20220409526A1 (Retina Foundation Of The Southwest, priority 2019, published 2022)
Entries after “also recorded” stand apart in the source; their conditions may differ.

Assays:
[1] = system: ARPE-19 cells; test: JC-1 assay (mitochondrial membrane potential); type: cell-based, human; details: 1 mM pretreatment for 1 hour, then 50 μM HQ for 4 hours
Method: JC-1 assays measuring the change in mitochondrial membrane potential were carried out to evaluate the protection of the NAC alkyl-ester analogues towards mitochondrial damage.
Typically, JC-1 dye has an inherent green fluorescence at 530 nm. Upon reaching the cell, due to the structural properties of the dye, it will accumulate in the mitochondria making aggregates known as J-aggregates. These J-aggregates consists of a red shifted fluorescence (590 nm). Damaged or unhealthy mitochondria, due to their depolarized membrane potential (compared to healthy ones), will have lesser amounts of aggregates and thus will have low intensity of red emission. Cells with healthy mitochondria will have a more prominent red fluorescence than that in cells with damaged/unhealthy mitochondria due to the ability in forming J-aggregates.
ARPE-19 cells were grown in black, clear bottom 96 well plates. […] With increasing time and dose of HQ, a drop in 590 nm/530 nm fluorescence is seen due to the depolarization of the mitochondria.
Next, to assess the effect of NAC alkyl-ester analogues on oxidative damage in mitochondria (FIG. 12B), ARPE-19 cells were pretreated with 1 mM NAC, NAC alkyl-ester analogues, NACA, GSH-EE and 1 μM MitoQ for 1 and 24 hours. […] The JC-1 solution was removed and washed once with PBS and fluorescence measurements were obtained in PBS at 485 nm excitation and emission at 535 nm and 590 nm. […]

[2] = system: ARPE-19 cells; test: HPLC analysis of cellular uptake and conversion to NAC; type: in vitro ADME, human; details: 1 mM for 1 hour in HBSS
Method: ARPE-19 cells were seeded onto a 60 cm^2 dish and was allowed to grow to confluency. The cells were treated with 1 mM NAC and NACBE for 1 hour in HBSS. The drug solution was aspirated and washed twice with HBSS. The cells were scraped with the aid of methanol (˜1 mL) and collected into 2 mL centrifuge tubes. The cell suspension in methanol was sonicated (for cell lysis) in a water bath for 30 minutes and was centrifuged at 14,000 RPM for 15 minutes. The supernatant was transferred to a HPLC vial and methanol was evaporated under a stream of nitrogen.
The sample was resuspended in 50 μL of methanol before injecting into the HPLC system. Samples and standard (20 μL) were injected with an autosampler. Separation was conducted by 0.8 mL/min gradient elution with a water/0.10% formic acid and acetonitrile mobile phase on a 250×4.6-mm ([…]) C18 column (Restek, Pinnacle II) maintained at 25° C. The samples were monitored at 205 nm with a UV detector and analyzed with Agilent Chemstation software.

[3] = system: mitochondria isolated from ARPE-19 cells; test: Mitochondrial GSH assay; type: cell-based, human; details: 1 mM for 24 hours; compared to NAC and ARPE-19 cells
Method: A GSH assay was carried out for isolated mitochondria to study the mechanism of action of the NAC alkyl-ester analogues in protecting mitochondria. ARPE-19 cells were grown in 6 well plates until 100% confluent in MEM-NIC media. The cells were exposed to 3 mL of 1 mM solutions of NAC and NACBE for 24 hours. The solutions were removed and washed with 3 mL of HBSS before adding 1 mL of 0.25% Trypsin-EDTA and incubating for 10 minutes. 2 mL of DMEM:F-12 supplemented with 10% FBS was added to each well, harvested and centrifuged at 300 rcf for 5 minutes. The supernatant was removed and cell pellet was resuspended in 2 mL of isolation buffer (0.25 M sucrose and 10 mM HEPES).
Cells were disrupted using a probe sonicator (Misonix 5-3000) for 10 seconds in ice. Subsequently, intact cells and debris were removed by centrifuging at 1000 g for 10 mins. Supernatant was collected, and centrifuged at 20,000 g for 25 minutes. Pellet containing mitochondria were saved and washed using 0.5 mL of isolation buffer. After centrifuging at 20,000 g for 25 minutes the mitochondrial pellet was resuspended in 50 μL of HBSS. 25 μL was used to determine total GSH and GSSG and 25 μL was used to determine GSSG levels. GSH assay was then carried out according to manufacturer recommended protocol (Promega GSH/GSSG-Glo™) and luminescence readings were obtained.

[4] = system: mitochondrial DNA of ARPE-19 cells; test: DNA fragmentation assay (long-extension PCR of mitochondrial DNA); type: cell-based, human; details: pretreatment for 24 hours (1 mM), then 500 uM HQ for 24 hours
Method: Mitochondrial DNA damage has been linked to pathogenic diseases, including AMD. To determine if pretreatment of RPE cells with NAC alkyl-ester analogues could protect mitochondrial DNA against oxidative damage, a long-extension PCR based assay was used to measure amplification of a large stretch of mitochondrial DNA. The mitochondrial DNA damage assay was performed according to protocols known to those in the art (see Santos, J. H.; Mandavilli, B. S.; Van Houten, B., Measuring Oxidative mtDNA Damage and Repair Using Quantitative PCR. In Mitochondrial DNA: Methods and Protocols, Copeland, W. C., Ed. Humana Press: Totowa, N.J., 2002; pp 159-176). Briefly, ARPE-19 cells were grown to confluency in 6-well plates. The cells were treated with NAC alkyl-ester analogues for 24 hours, washed and then treated with 500 uM HQ for an additional 24 hours. DNA was isolated from the treated cells with a QIAamp DNA mini kit (Qiagen). The DNA samples were diluted to 3 ng/μl for use in PCR reactions. PCR products were quantified using the Quant-iT Picogreen dsDNA Assay kit (Invitrogen). The relative amplification of the large band was normalized to untreated cells. The amplification of the small mitochondrial band was used to normalize the data obtained from the large band to account for mitochondrial DNA copy number.

[5] = system: ARPE-19 cells; test: JC-1 staining (confocal); details: 1 mM pretreatment for 24 hours, then 50 μM HQ for 4 hours
Source text: The cells were imaged on the confocal (Zeiss LSM 800) by excitation with the 488 nm laser and emission imaged at 530 nm (green channel) and 590 nm (red channel).

With `CCCCOC(=O)[C@H](CS)NC(C)=O` [NACBE, N-acetylcysteine butyl ester] the “protection towards mitochondrial damage (JC-1)” value [1] was “improved protection towards mitochondrial damage”, the “compound and metabolite detected within the cells by HPLC” value [2] was “both NACBE (prodrug) and NAC (metabolite) within the cells; also recorded: taken up by the cells more effectively than NAC” and the “mitochondrial GSH level (luminescence intensity)” value [3] was “increase in the luminescence intensity”. The “protection of mitochondrial DNA amplification against HQ” value [4] was “keep the PCR amplification of the mitochondrial DNA intact” and the “mitochondrial membrane potential after HQ (JC-1 staining)” value [5] was “preserved the mitochondrial membrane potential”.
